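GI50 marks 50% less growth. The concentration for full growth arrest is given as TGI.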
Assays:
Test in all cases: inhibition of tumour cell growth, NCI panel, 384-well format
HCT-116 colon = tested on: HCT-116 colon
A549 NSCLC = tested on: A549 NSCLC
COLO 205 colon = tested on: COLO 205 colon
BT-549 breast = tested on: BT-549 breast
CAKI-1 renal = tested on: CAKI-1 renal
RPMI-8226 leukemia = tested on: RPMI-8226 leukemia
NCI/ADR-RES ovarian = tested on: NCI/ADR-RES ovarian
T-47D breast = tested on: T-47D breast
HCT-15 colon = tested on: HCT-15 colon
NCI-H226 lung = tested on: NCI-H226 lung
SF-539 CNS = tested on: SF-539 CNS
OVCAR-3 ovarian = tested on: OVCAR-3 ovarian
NCI-H23 lung = tested on: NCI-H23 lung
SNB-75 CNS = tested on: SNB-75 CNS
DU-145 prostate = tested on: DU-145 prostate
MDA-MB-231 breast = tested on: MDA-MB-231 breast
A498 renal = tested on: A498 renal
IGROV1 ovarian = tested on: IGROV1 ovarian
KM12 colon = tested on: KM12 colon
MDA-MB-435 melanoma = tested on: MDA-MB-435 melanoma
UO-31 renal = tested on: UO-31 renal
OVCAR-8 ovarian = tested on: OVCAR-8 ovarian
SNB-19 CNS = tested on: SNB-19 CNS
U251 glioblastoma = tested on: U251 glioblastoma
MALME-3M melanoma = tested on: MALME-3M melanoma
HL-60(TB) leukemia = tested on: HL-60(TB) leukemia
LOX IMVI melanoma = tested on: LOX IMVI melanoma
SK-MEL-28 melanoma = tested on: SK-MEL-28 melanoma
OVCAR-4 ovarian = tested on: OVCAR-4 ovarian
NCI-H322M lung = tested on: NCI-H322M lung
EKVX NSCLC = tested on: EKVX NSCLC
RXF 393 renal = tested on: RXF 393 renal
MCF7 breast = tested on: MCF7 breast
SK-MEL-5 melanoma = tested on: SK-MEL-5 melanoma
SW-620 colon = tested on: SW-620 colon
MDA-MB-468 breast = tested on: MDA-MB-468 breast
HCC-2998 colon = tested on: HCC-2998 colon
NCI-H522 lung = tested on: NCI-H522 lung
M14 melanoma = tested on: M14 melanoma
HOP-62 NSCLC = tested on: HOP-62 NSCLC
786-0 renal = tested on: 786-0 renal
K-562 leukemia = tested on: K-562 leukemia
MOLT-4 leukemia = tested on: MOLT-4 leukemia
HOP-92 NSCLC = tested on: HOP-92 NSCLC
SK-OV-3 ovarian = tested on: SK-OV-3 ovarian
CCRF-CEM leukemia = tested on: CCRF-CEM leukemia
UACC-62 melanoma = tested on: UACC-62 melanoma
SN12C renal = tested on: SN12C renal
ACHN renal = tested on: ACHN renal
NCI-H460 NSCLC = tested on: NCI-H460 NSCLC
SF-295 CNS = tested on: SF-295 CNS
HS 578T breast = tested on: HS 578T breast
PC-3 prostate = tested on: PC-3 prostate
TK-10 renal = tested on: TK-10 renal
SF-268 CNS = tested on: SF-268 CNS
UACC-257 melanoma = tested on: UACC-257 melanoma
HT29 colon = tested on: HT29 colon
SR leukemia = tested on: SR leukemia

## O=C(O)C1(C(=O)O)CCC1.[NH2-].[NH2-].[Pt+2]
HCT-116 colon
  GI50: < 0.01 µM
  TGI: < 0.01 µM
A549 NSCLC
  GI50: < 0.01 µM
  TGI: < 0.01 µM
COLO 205 colon
  GI50: < 0.01 µM
  TGI: < 0.01 µM
BT-549 breast
  GI50: < 0.01 µM
  TGI: < 0.01 µM
CAKI-1 renal
  GI50: < 0.01 µM
  TGI: < 0.01 µM

## O=c1cc(-c2cccc3c2Sc2ccccc2S3)oc(N2CCOCC2)c1
RPMI-8226 leukemia
  GI50: 3.35 µM
  TGI: 13.9 µM
NCI/ADR-RES ovarian
  GI50: 11.1 µM
  TGI: 23.2 µM
T-47D breast
  GI50: 10.1 µM
  TGI: 21.8 µM
HCT-15 colon
  GI50: 7.02 µM
  TGI: 19.8 µM
HCT-116 colon
  GI50: 9.36 µM
  TGI: 21.6 µM
NCI-H226 lung
  GI50: 12.7 µM
  TGI: 25.3 µM
SF-539 CNS
  GI50: 12.2 µM
  TGI: 24.9 µM
OVCAR-3 ovarian
  GI50: 12.7 µM
  TGI: 25.5 µM
NCI-H23 lung
  GI50: 16 µM
  TGI: 29.6 µM
SNB-75 CNS
  GI50: 10.7 µM
  TGI: 22.7 µM
DU-145 prostate
  GI50: 12.9 µM
  TGI: 25.7 µM
MDA-MB-231 breast
  GI50: 11.3 µM
  TGI: 23.5 µM
A498 renal
  GI50: 4.26 µM
  TGI: 15.3 µM
IGROV1 ovarian
  GI50: 7.75 µM
  TGI: 20.2 µM
KM12 colon
  GI50: 5.64 µM
  TGI: 17.7 µM
A549 NSCLC
  GI50: 11.4 µM
  TGI: 23.8 µM
MDA-MB-435 melanoma
  GI50: 5.13 µM
  TGI: 16.3 µM
UO-31 renal
  GI50: 6.91 µM
  TGI: 20.2 µM
OVCAR-8 ovarian
  GI50: 12.8 µM
  TGI: 25.7 µM
SNB-19 CNS
  GI50: 13.9 µM
  TGI: 26.9 µM
U251 glioblastoma
  GI50: 12.7 µM
  TGI: 25.5 µM
MALME-3M melanoma
  GI50: 6.31 µM
  TGI: 19.2 µM
HL-60(TB) leukemia
  GI50: 1.52 µM
  TGI: 3.17 µM
LOX IMVI melanoma
  GI50: 12.9 µM
  TGI: 25.6 µM
SK-MEL-28 melanoma
  GI50: 10.4 µM
  TGI: 22.2 µM
OVCAR-4 ovarian
  GI50: 12.9 µM
  TGI: 25.6 µM
NCI-H322M lung
  GI50: 11 µM
  TGI: 23.1 µM
COLO 205 colon
  GI50: 15.4 µM
  TGI: 28.9 µM
EKVX NSCLC
  GI50: 11.1 µM
  TGI: 23.2 µM
RXF 393 renal
  GI50: 4.89 µM
  TGI: 17.6 µM
MCF7 breast
  GI50: 6.98 µM
  TGI: 19.7 µM
SK-MEL-5 melanoma
  GI50: 10.7 µM
  TGI: 22.7 µM
SW-620 colon
  GI50: 15.9 µM
  TGI: 29.6 µM
MDA-MB-468 breast
  GI50: 8.61 µM
  TGI: 20.7 µM
BT-549 breast
  GI50: 7.8 µM
  TGI: 20.5 µM
HCC-2998 colon
  GI50: 2.98 µM
  TGI: 11.6 µM
NCI-H522 lung
  GI50: 12.4 µM
  TGI: 24.9 µM
M14 melanoma
  GI50: 10.6 µM
  TGI: 22.5 µM
HOP-62 NSCLC
  GI50: 13.6 µM
  TGI: 26.6 µM
786-0 renal
  GI50: 10.6 µM
  TGI: 22.6 µM
K-562 leukemia
  GI50: 5.04 µM
  TGI: 16.3 µM
MOLT-4 leukemia
  GI50: 7.2 µM
  TGI: 19.9 µM
HOP-92 NSCLC
  GI50: 10.1 µM
  TGI: 21.7 µM
SK-OV-3 ovarian
  GI50: 15.2 µM
  TGI: 28.7 µM
CCRF-CEM leukemia
  GI50: 7.99 µM
  TGI: 20.5 µM
UACC-62 melanoma
  GI50: 10.4 µM
  TGI: 22.3 µM
SN12C renal
  GI50: 11.5 µM
  TGI: 23.8 µM
ACHN renal
  GI50: 14.8 µM
  TGI: 28.1 µM
NCI-H460 NSCLC
  GI50: 14.4 µM
  TGI: 28 µM
SF-295 CNS
  GI50: 13.2 µM
  TGI: 26.1 µM
HS 578T breast
  GI50: 6.58 µM
  TGI: 18.5 µM
PC-3 prostate
  GI50: 6.39 µM
  TGI: 19.3 µM
TK-10 renal
  GI50: 12 µM
  TGI: 24.4 µM
CAKI-1 renal
  GI50: 5.15 µM
  TGI: 18.4 µM
SF-268 CNS
  GI50: 12.1 µM
  TGI: 24.7 µM
UACC-257 melanoma
  GI50: 10.2 µM
  TGI: 21.9 µM
HT29 colon
  GI50: 12 µM
  TGI: 24.7 µM
SR leukemia
  GI50: 2.53 µM
  TGI: 4.95 µM

## Cc1nc(-c2cn3c(n2)-c2ccc(-c4cnn(C(C)(C)C(N)=O)c4)cc2OCC3)n(C(C)C)n1
RPMI-8226 leukemia
  GI50: 3.21 µM
  TGI: 13.3 µM
NCI/ADR-RES ovarian
  GI50: 13.2 µM
  TGI: 52.7 µM
T-47D breast
  GI50: < 0.01 µM
  TGI: 0.0399 µM
HCT-15 colon
  GI50: 1.59 µM
  TGI: 23.6 µM
HCT-116 colon
  GI50: 1.92 µM
  TGI: 18.3 µM
NCI-H226 lung
  GI50: 2.82 µM
  TGI: 41 µM
SF-539 CNS
  GI50: 1.09 µM
  TGI: 20.2 µM
OVCAR-3 ovarian
  GI50: 0.398 µM
  TGI: 9.21 µM
NCI-H23 lung
  GI50: 11.3 µM
  TGI: 50.5 µM
SNB-75 CNS
  GI50: 0.221 µM
  TGI: 15.3 µM
DU-145 prostate
  GI50: 2.16 µM
  TGI: 17.8 µM
MDA-MB-231 breast
  GI50: 5.79 µM
  TGI: > 100 µM
A498 renal
  GI50: 1.96 µM
  TGI: 12.4 µM
IGROV1 ovarian
  GI50: 0.0125 µM
  TGI: 0.0541 µM
KM12 colon
  GI50: 3.72 µM
  TGI: 17 µM
A549 NSCLC
  GI50: 1.43 µM
  TGI: 14.7 µM
MDA-MB-435 melanoma
  GI50: 6.33 µM
  TGI: 53.2 µM
UO-31 renal
  GI50: 0.848 µM
  TGI: > 100 µM
OVCAR-8 ovarian
  GI50: 3.01 µM
  TGI: 84 µM
SNB-19 CNS
  GI50: 13.8 µM
  TGI: > 100 µM
U251 glioblastoma
  GI50: 3.56 µM
  TGI: > 100 µM
MALME-3M melanoma
  GI50: 0.164 µM
  TGI: 4.21 µM
HL-60(TB) leukemia
  GI50: < 0.01 µM
  TGI: 0.115 µM
LOX IMVI melanoma
  GI50: 1.99 µM
  TGI: 15.4 µM
SK-MEL-28 melanoma
  GI50: 0.484 µM
  TGI: > 100 µM
OVCAR-4 ovarian
  GI50: 15.2 µM
  TGI: 93.7 µM
NCI-H322M lung
  GI50: 0.312 µM
  TGI: 14.2 µM
COLO 205 colon
  GI50: 0.396 µM
  TGI: 25.4 µM
EKVX NSCLC
  GI50: 0.756 µM
  TGI: 15.4 µM
RXF 393 renal
  GI50: 1.99 µM
  TGI: 11.3 µM
MCF7 breast
  GI50: 0.0152 µM
  TGI: 15.1 µM
SK-MEL-5 melanoma
  GI50: 1.26 µM
  TGI: 9.2 µM
SW-620 colon
  GI50: 12.5 µM
  TGI: > 100 µM
MDA-MB-468 breast
  GI50: 0.147 µM
  TGI: 1.34 µM
BT-549 breast
  GI50: 1.67 µM
  TGI: 19.9 µM
HCC-2998 colon
  GI50: 0.831 µM
  TGI: 14 µM
NCI-H522 lung
  GI50: 3.56 µM
  TGI: 27.3 µM
M14 melanoma
  GI50: 7.41 µM
  TGI: 32.1 µM
HOP-62 NSCLC
  GI50: 5.99 µM
  TGI: 91.3 µM
786-0 renal
  GI50: 2.6 µM
  TGI: 87.3 µM
K-562 leukemia
  GI50: 12.9 µM
  TGI: 84.8 µM
MOLT-4 leukemia
  GI50: 0.0746 µM
  TGI: 1.12 µM
HOP-92 NSCLC
  GI50: 0.226 µM
  TGI: 29.9 µM
SK-OV-3 ovarian
  GI50: 0.0291 µM
  TGI: 1.95 µM
CCRF-CEM leukemia
  GI50: 0.343 µM
  TGI: 13.7 µM
UACC-62 melanoma
  GI50: 0.71 µM
  TGI: 7.5 µM
SN12C renal
  GI50: 0.27 µM
  TGI: > 100 µM
ACHN renal
  GI50: 1.36 µM
  TGI: > 100 µM
NCI-H460 NSCLC
  GI50: 0.134 µM
  TGI: 11.4 µM
SF-295 CNS
  GI50: 0.95 µM
  TGI: 9 µM
HS 578T breast
  GI50: 0.567 µM
  TGI: 12.5 µM
PC-3 prostate
  GI50: 0.396 µM
  TGI: 12.2 µM
TK-10 renal
  GI50: 0.387 µM
  TGI: 19.2 µM
CAKI-1 renal
  GI50: 0.342 µM
  TGI: 31.8 µM
SF-268 CNS
  GI50: 3.31 µM
  TGI: 29.5 µM
UACC-257 melanoma
  GI50: 7.34 µM
  TGI: 40.7 µM
HT29 colon
  GI50: 0.085 µM
  TGI: 16.6 µM
SR leukemia
  GI50: 0.785 µM
  TGI: 2.53 µM

From PubChem BioAssay (NCI)
